Active and inactive are the calls of the source. The rule behind the calls is not given here.

In assay [1] the target is Serotonin 2 (5-HT2) receptor (Rattus norvegicus, UniProt P30994+P08909+P14842). The assay is described as follows: Ability to displace the radioligand [3H]ketanserin from 5-hydroxytryptamine 2 receptor of rat cerebral cortex membrane. It counts as tissue-based.
The target in assay [2] is 5-hydroxytryptamine receptor 7 (Homo sapiens, UniProt P34969). Kind of assay: Ability to displace the radioligand [3H]5-carboxyamidotryptamine ([3H]5-CT) from human 5-hydroxytryptamine 7 receptor expressed in COS-7 cells. The format is cell-based.
For assay [3], the target named is T1, Serotonin 3 receptor (5HT3) (Mus musculus, UniProt Q9JHJ5+P23979).
T1 sequence (Q9JHJ5 whole entry): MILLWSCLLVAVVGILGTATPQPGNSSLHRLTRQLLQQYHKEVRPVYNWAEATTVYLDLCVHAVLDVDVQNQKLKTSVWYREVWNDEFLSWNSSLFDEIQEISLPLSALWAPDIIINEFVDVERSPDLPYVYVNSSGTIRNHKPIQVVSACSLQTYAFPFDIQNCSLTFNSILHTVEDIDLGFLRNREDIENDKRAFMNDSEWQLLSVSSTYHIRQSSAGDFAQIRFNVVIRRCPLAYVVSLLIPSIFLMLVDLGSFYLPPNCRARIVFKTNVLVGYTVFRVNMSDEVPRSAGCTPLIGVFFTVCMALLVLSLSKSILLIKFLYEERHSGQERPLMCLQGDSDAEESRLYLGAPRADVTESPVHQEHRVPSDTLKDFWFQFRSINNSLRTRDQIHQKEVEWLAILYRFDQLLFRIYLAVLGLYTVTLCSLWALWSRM
T1 sequence (P23979 whole entry): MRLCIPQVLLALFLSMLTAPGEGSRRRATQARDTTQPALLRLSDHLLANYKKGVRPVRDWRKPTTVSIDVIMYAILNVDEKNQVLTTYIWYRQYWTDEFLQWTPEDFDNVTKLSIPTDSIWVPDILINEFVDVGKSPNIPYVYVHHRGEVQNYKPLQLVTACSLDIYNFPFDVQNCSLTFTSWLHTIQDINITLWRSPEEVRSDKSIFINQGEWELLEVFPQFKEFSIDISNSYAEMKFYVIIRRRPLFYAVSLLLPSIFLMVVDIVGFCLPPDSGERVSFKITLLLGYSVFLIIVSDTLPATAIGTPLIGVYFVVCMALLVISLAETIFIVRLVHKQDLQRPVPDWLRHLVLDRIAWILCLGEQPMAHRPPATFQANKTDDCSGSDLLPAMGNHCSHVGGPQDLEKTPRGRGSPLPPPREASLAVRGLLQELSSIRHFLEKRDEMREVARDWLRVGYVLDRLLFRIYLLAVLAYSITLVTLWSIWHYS
The assay is described as follows: Ability to displace the radioligand [3H]GR-65630 from 5-hydroxytryptamine 3 receptor expressed in NIE-115 cells. It counts as cell-based.

In assay [4] the target is T2, 5-hydroxytryptamine receptor 4 (Cavia porcellus, UniProt O70528). Kind of assay: Ability to displace the radioligand [3H]GR-113808 from guinea pig striatum 5-HT4 receptor.
The target in assay [5] is 5-hydroxytryptamine receptor 6 (Homo sapiens, UniProt P50406). Kind of assay: Ability to displace the radioligand [3H]LSD from human 5-hydroxytryptamine 6 receptor.
Assay [6] deals with T3, 5-hydroxytryptamine receptor 1B (Rattus norvegicus, UniProt P28564). Kind of assay: Ability to displace the radioligand [125I](-)-iodocyanopindolol from rat striatal 5-HT1B receptor.
The target of assay [7] is T4, 5-hydroxytryptamine receptor 1A (Homo sapiens, UniProt P08908).
T4 sequence (P08908 whole entry): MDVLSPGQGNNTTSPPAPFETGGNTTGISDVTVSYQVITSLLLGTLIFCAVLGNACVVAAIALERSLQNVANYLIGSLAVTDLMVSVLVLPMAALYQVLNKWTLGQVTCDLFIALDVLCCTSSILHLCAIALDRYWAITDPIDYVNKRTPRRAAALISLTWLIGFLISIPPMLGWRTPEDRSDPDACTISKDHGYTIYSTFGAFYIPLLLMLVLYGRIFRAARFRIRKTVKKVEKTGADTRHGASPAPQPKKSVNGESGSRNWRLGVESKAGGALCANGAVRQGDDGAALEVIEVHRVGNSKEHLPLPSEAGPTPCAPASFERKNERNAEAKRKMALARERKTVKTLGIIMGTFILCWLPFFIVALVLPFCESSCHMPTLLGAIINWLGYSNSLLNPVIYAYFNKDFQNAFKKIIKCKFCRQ
Kind of assay: Ability to displace the radioligand [3H]-8-OH-DPAT from human 5-hydroxytryptamine 1A receptor.

The next assay has as its system HEK293. Kind of assay: Influence on 5-HT-induced stimulation of cAMP accumulation in HEK 293 cells; NS is not Stimulated. To be noted: Homo sapiens. The format is functional, cell-based. On the technique in general: Cyclic AMP is a second messenger, typically raised through Gs and lowered through Gi signalling.
The target of assay [8] is T2, 5-hydroxytryptamine receptor 4. The assay is described as follows: Ability to displace the radioligand [3H]GR-113808 from guinea pig striatum 5-hydroxytryptamine 4 receptor.
Assay [9] addresses T3, 5-hydroxytryptamine receptor 1B. The assay is described as follows: Ability to displace the radioligand [125I](-)-iodocyanopindolol from rat striatal 5-hydroxytryptamine 1B receptor.

Chain of 5-hydroxytryptamine receptor 7 (P34969 whole entry): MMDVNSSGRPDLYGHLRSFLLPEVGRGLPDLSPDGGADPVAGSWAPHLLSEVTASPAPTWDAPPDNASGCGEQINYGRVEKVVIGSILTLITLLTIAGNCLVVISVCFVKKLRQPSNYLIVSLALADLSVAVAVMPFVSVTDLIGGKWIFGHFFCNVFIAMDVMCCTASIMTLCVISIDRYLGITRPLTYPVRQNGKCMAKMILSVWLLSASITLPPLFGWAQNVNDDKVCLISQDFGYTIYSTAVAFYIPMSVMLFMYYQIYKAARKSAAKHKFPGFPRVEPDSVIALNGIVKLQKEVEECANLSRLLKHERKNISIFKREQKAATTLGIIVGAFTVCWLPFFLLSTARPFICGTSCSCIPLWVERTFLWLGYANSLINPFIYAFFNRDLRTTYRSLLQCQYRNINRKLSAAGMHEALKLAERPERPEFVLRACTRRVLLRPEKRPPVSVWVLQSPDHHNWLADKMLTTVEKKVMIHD
T3 sequence (P28564 whole entry): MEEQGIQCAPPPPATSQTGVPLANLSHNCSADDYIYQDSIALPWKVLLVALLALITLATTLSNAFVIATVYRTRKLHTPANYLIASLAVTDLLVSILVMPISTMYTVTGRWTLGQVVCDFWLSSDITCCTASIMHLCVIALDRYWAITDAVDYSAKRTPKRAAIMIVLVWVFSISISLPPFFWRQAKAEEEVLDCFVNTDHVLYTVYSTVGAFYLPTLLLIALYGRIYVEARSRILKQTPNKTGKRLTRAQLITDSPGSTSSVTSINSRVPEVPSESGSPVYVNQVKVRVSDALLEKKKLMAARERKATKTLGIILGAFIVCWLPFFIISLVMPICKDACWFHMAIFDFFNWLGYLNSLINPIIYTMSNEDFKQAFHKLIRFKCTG
T2 sequence (O70528 whole entry): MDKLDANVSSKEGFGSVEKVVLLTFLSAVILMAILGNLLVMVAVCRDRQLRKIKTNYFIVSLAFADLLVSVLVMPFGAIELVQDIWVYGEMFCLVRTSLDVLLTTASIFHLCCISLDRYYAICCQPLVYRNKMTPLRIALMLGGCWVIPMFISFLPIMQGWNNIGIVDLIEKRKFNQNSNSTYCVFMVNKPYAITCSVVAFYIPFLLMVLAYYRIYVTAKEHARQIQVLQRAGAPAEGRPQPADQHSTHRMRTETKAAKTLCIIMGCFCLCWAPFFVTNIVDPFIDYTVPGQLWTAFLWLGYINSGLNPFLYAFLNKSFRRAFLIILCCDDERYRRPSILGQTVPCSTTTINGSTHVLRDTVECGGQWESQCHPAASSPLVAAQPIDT
Chain of 5-hydroxytryptamine receptor 6 (P50406 whole entry): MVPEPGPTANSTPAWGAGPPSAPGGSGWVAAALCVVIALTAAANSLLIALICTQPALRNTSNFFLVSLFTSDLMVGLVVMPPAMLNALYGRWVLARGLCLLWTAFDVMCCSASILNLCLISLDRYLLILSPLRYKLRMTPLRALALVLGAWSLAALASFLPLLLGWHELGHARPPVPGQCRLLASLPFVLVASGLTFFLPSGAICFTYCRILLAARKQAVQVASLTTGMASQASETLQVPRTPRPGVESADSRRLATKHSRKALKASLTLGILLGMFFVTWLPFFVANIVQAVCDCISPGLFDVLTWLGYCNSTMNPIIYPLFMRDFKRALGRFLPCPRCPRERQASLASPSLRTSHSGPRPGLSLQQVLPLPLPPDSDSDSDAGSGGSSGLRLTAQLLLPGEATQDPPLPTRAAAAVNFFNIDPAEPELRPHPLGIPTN

For `CCN1C(=O)C2(CCCCN3CCc4sccc4C3)CCCc3cccc1c32` (centres undefined), the “Log Ki” value in assay [1] was -6.31. The molecule further had an inhibition constant (Ki) in [2] of 174 nM.

In the case of `CN1C(=O)C2(CCCCN3CCc4sccc4C3)CCCc3cccc1c32` (centres undefined), the “Log Ki” value in assay [1] was -6.02; in assay [3], under -6. Also, the inhibition constant Ki in assay [4] is over 1000 nM; in [2] it was 9.77 nM; in assay [5] it was over 1000 nM; in assay [6] it was over 1000 nM; in assay [7], 776 nM.

`O=C1Nc2cccc3c2C1(CCCCN1CCc2ccccc2C1)CCC3` (centres undefined): the “Log Ki” value in assay [1] was -6.21. Besides, in assay [2], the inhibitory constant (Ki) was 4.47 nM.

Take `O=C1Nc2cccc3c2C1(CCCN1CCc2ccccc2C1)CCC3` (centres undefined): the “Log Ki” value in assay [1] is listed as -6.31. Further, the Ki in assay [2] was 8.32 nM.

As for `O=C1Nc2cccc3c2C1(CCCCN1CCc2[nH]cnc2C1)CCC3` (centres undefined), the “Log Ki” value in assay [1] was under -6. For the same molecule, the affinity in assay [2], expressed as Ki, was 562 nM.

`O=C1Nc2cccc3c2C1(CCCCN1CCc2occc2C1)CCC3` (centres undefined): the “Log Ki” value in [1] is recorded as under -6. The molecule further gave a Ki in assay [2] of 15.8 nM.

Take `O=C1Nc2cccc3c2C1(CCCCCN1CCc2ccccc2C1)CCC3` (centres undefined): in assay [1], the “Log Ki” value was -6.16. Besides, the Ki in assay [2] was 12.6 nM.

As to `O=C1Nc2cccc3c2C1(CCCCN1CCc2sccc2C1)CCC3` (centres undefined), the outcome with HEK293 was inactive. Further, the “Log Ki” value in assay [1] is listed as -6.08; in assay [3], under -6. Besides, the Ki is 6.46 nM in assay [2]; over 1000 nM in assay [5]; over 1000 nM in assay [8]; 513 nM in assay [7]; over 1000 nM in [9].

As for `O=C1Nc2cccc3c2C1(CCCCN1CCc2n[nH]cc2C1)CCC3` (centres undefined), the “Log Ki” value in assay [1] is recorded as under -6. This molecule had a Ki in [2] of 813 nM.

What is called Ki is a measure of affinity in units of concentration, obtained from inhibition or displacement. Read a low Ki as a stronger hold on the target.

The values above are taken from ChEMBL document CHEMBL1135321, “Tetrahydrothienopyridylbutyl-tetrahydrobenzindoles: new selective ligands of the 5-HT(7) receptor” (Bioorg Med Chem Lett, 2002).
